The series is described as follows: Henry solubility constant Hcp at 298.15 K (mol/(m3 Pa)). Particulars: reference: Zhang and Pawliszyn (1993).
Turning to `Cc1ccccc1C` [1,2-dimethylbenzene], the “Henry solubility constant Hcp” value was 0.0027. Take `Cc1ccc(C)cc1` [1,4-dimethylbenzene]: the “Henry solubility constant Hcp” value came out at 0.0017. As for `c1cc2c3c(cccc3c1)CC2` [acenaphthene], the “Henry solubility constant Hcp” value amounted to 0.11. `c1ccc2cc3ccccc3cc2c1` [anthracene]: the “Henry solubility constant Hcp” value is 0.11. As for `c1ccccc1` [benzene], the “Henry solubility constant Hcp” value was 0.0015. Then `c1ccc2c(c1)ccc1c3ccccc3ccc21` [chrysene], with 9.4; and `CCc1ccccc1` [ethylbenzene], with 0.0025; and `Cc1ccccc1` [methylbenzene], with 0.0015. For the compound `c1ccc2ccccc2c1` [naphthalene], the “Henry solubility constant Hcp” value is 0.021. As to `c1ccc2c(c1)ccc1ccccc12` [phenanthrene], the “Henry solubility constant Hcp” value turned out to be 0.25.
